For one test, the system named is 293T. Format: cell-based, human. The note with it: 48 h. The source says:
(§1) Since the antitumor activity of natural galaxamide is good, we are interested in the antitumor potential of the obtained new analogs. To examine the anticancer activities of galaxamide and its analogs, two different human cancer cell lines, human non-small-cell lung cancer cells (A549) and human chronic myelogenous leukemia (K562), and one normal human cell line, human immortal embryonic kidney cells (293T), were selected for the in vitro cell models. […] The synthetic galaxamide (Gala01) was also tested as the standard. […] It was also found […] the best selectivity and highest safety and is thus worthy of further development for anticancer drugs for K562. A549, K562, and 293T cells were purchased from the Cell Resource Center of the Institute of Basic Medicine, Chinese Academy of Medical Sciences. Both A549 cells and K562 cells were cultured in RPMI (full name: Roswell Park Memorial Institute) 1640 medium containing 10% FBS (full name: fetal bovine serum, product number: C04001-500, Vivacell, Shanghai, China) and 1% p/s (full name: penicillin-streptomycin, product number: 15140122, Gbico, Waltham, MA, USA) for culture. The 293T cells were all cultured in DMEM (full name: Dulbecco's Modified Eagle Medium; cat. no.: C3113-0500, Vivacell, ShanghaiChina; containing 10% FBS and 1% p/s) for cultivation. […] Multiple types of cells were seeded into 96-well plates and treated with different concentrations of […]26 for 48 h after they returned to normal. Then, the relative activity of the cells was detected according to the instructions of the CCK-8 kit (item number: MA0218, Meilunbio, Dalian, China) and analyzed and calculated using GraphPad Prism 8.0.1 software.

A further test deals with A549. Type of test: cell-based, human.
Excerpt: as §1

The next test relates to K562. Format: cell-based, human. The procedure: To examine the anticancer activities of galaxamide and its analogs, two different human cancer cell lines, human non-small-cell lung cancer cells (A549) and human chronic myelogenous leukemia (K562), and one normal human cell line, human immortal embryonic kidney cells (293T), were selected for the in vitro cell models. […] The synthetic galaxamide (Gala01) was also tested as the standard. […] A549, K562, and 293T cells were purchased from the Cell Resource Center of the Institute of Basic Medicine, Chinese Academy of Medical Sciences. Both A549 cells and K562 cells were cultured in RPMI (full name: Roswell Park Memorial Institute) 1640 medium containing 10% FBS (full name: fetal bovine serum, product number: C04001-500, Vivacell, Shanghai, China) and 1% p/s (full name: penicillin-streptomycin, product number: 15140122, Gbico, Waltham, MA, USA) for culture. The 293T cells were all cultured in DMEM (full name: Dulbecco's Modified Eagle Medium; cat. no.: C3113-0500, Vivacell, ShanghaiChina; containing 10% FBS and 1% p/s) for cultivation. […] Multiple types of cells were seeded into 96-well plates and treated with different concentrations of […]26 for 48 h after they returned to normal. Then, the relative activity of the cells was detected according to the instructions of the CCK-8 kit (item number: MA0218, Meilunbio, Dalian, China) and analyzed and calculated using GraphPad Prism 8.0.1 software.

Test [1] concerns human renal cell carcinoma GRC-1. Set-up: method as in PMID 18816120. The note with it: human renal cell carcinoma GRC-1 cell line; cited from earlier work.
In test [2] the test system is human hepatocellular carcinoma Hep G2. Set-up: method as in PMID 18816120. The note with it: human hepatocellular carcinoma Hep G2 cell line; cited from earlier work.
[3] abbreviates: normal human embryonic kidney cells 293T, CCK-8, NA = not determined due to low inhibitory activity, read-out: IC50 293T.
Setting [4] is: human non-small-cell lung cancer cells A549, 48 h, CCK-8, unit given in the text, not in Table 2, read-out: IC50 A549.
Setting [5] is: human chronic myelogenous leukemia K562, 48 h, CCK-8, unit given in the text, not in Table 2, read-out: IC50 K562.

≈ marks a conversion by molar mass, not a printed value. Where “and” joins values, the source holds several entries; their conditions need not be identical. Identical values can stand only once. Like-named read-outs stand apart in the source and are kept apart here. Where a SMILES comes first, the peptide text is derived from it. [ ]: non-standard residue; d: D form. NMeL = CN[C@@H](CC(C)C)C(=O)O; dNMeL = CN[C@H](CC(C)C)C(=O)O

The term IC50 denotes the concentration at which inhibition is half-maximal. Regarding `CC(C)C[C@@H]1C(=O)N[C@H](CC(C)C)C(=O)N[C@H](CC(C)C)C(=O)N(C)[C@H](CC(C)C)C(=O)N[C@H](CC(C)C)C(=O)N1C` [Gala01, Cyclo(Me-D-Leu-D-Leu-D-Leu-Me-D-Leu-D-Leu)] (cyclo([dL][dL][dNMeL][dL][dNMeL])), the IC50 was 19.9 µM in the test with 293T (setting [3]), 14 µM in the test on A549 (setting [4]) and above 80 µM with K562 (setting [5]). The “IC50 GRC-1” value in test [1] was 4.26 µg/mL (≈ 7.17 µM). Also, the “IC50 Hep G2” value in test [2] is reported as 4.63 µg/mL (≈ 7.8 µM).

Turning to (−)-β-elemene [reference compound], the IC50 in the test on 293T (setting [3]), with A549 (setting [4]) and with K562 (setting [5]) was above 100 µM each time.

For `CC(C)C[C@@H]1NC(=O)[C@@H](CC(C)C)N(C)C(=O)[C@H](CC(C)C)NC(=O)[C@@H](CC(C)C)N(C)C(=O)[C@@H](CC(C)C)NC1=O` [Gala04, Cyclo(Me-D-Leu-L-Leu-D-Leu-Me-D-Leu-L-Leu)] (cyclo(L[dL][dNMeL]L[dNMeL])), the half-maximal inhibitory concentration (IC50) in the test on 293T (setting [3]) was 16.3 µM; with A549 (setting [4]), 19 µM; with K562 (setting [5]), 4.19 µM and 4.2 µM.

`COC(=O)C[C@H]1NC(=O)[C@H](CC(C)C)NC(=O)[C@H](CC(C)C)N(C)C(=O)[C@H](CC(C)C)NC(=O)[C@H](CC(C)C)N(C)C1=O` [Gala14, Cyclo(Me-L-Leu-L-Leu-Methylester-D-Asp-Me-L-Leu-L-Leu)] (cyclo(L[NMeL]L[dD](OMe)[NMeL])): the IC50 came out at 22.2 µM in the test on 293T, 20 µM in the test on A549 (48 h) and 29.6 µM in the test with K562 (48 h).

For the compound `COC[C@H]1NC(=O)[C@H](CC(C)C)NC(=O)[C@H](CC(C)C)N(C)C(=O)[C@H](CC(C)C)NC(=O)[C@H](CC(C)C)N(C)C1=O` [Gala12, Cyclo(Me-L-Leu-L-Leu-O-Me-D-Ser-Me-L-Leu-L-Leu)] (cyclo(L[NMeL]L[dS](Me)[NMeL])), the IC50 worked out at 14.1 µM with 293T and 61.8 µM with K562 (48 h).

The values above are taken from paper PMC12155888, “Design, Synthesis, and Antitumor Biological Evaluation of Galaxamide and Its Analogs” (Molecules, 2025).
